Each structure is given as a SMILES string. Some results are limits rather than exact numbers.

From publication PMC8038316 (International Journal of Molecular Sciences, 2021) come the findings set out here.

The target in test [1] is T1, cytochrome bc1 complex (complex III; decylubiquinol:Cyt c reductase, EC 1.10.2.2) (Pyricularia grisea, UniProt Q85KP9).
T1 construct: gene cytb
The test is described as follows: biochemical. The conditions noted are these: read-out: % inhibition at 50 μM.

Test [2] addresses T2, succinate dehydrogenase (SDH; succinate:quinone oxidoreductase, SQR, EC 1.3.5.1; complex II) (Pyricularia oryzae, UniProt A0ABQ8NN34+G4N2P5+G4NB04).
T2 construct: gene SDH2
The test can be described thus: biochemical.

Broadly, the inhibition is the drop in the measured response relative to a control, in per cent. Turning to `CO/C=C(/C(=O)OC)c1ccccc1COc1cccc(NC(=O)c2ccccc2NC(C)=O)c1` [11b], in test [1], the inhibition at 50 µM was determined as 58 ± 18%. Also, the inhibition at 400 µM in test [2] (read-out: % inhibition at 400 μM) is around 23%.

Consider `CO/C=C(/C(=O)OC)c1ccccc1Oc1cc(Oc2ccccc2C#N)ncn1` [compound 2, azoxystrobin], for which the inhibition at 50 µM in test [1] worked out at 61 ± 10%.

As for `Cn1cc(C(=O)Nc2ccccc2-c2cc(F)c(F)c(F)c2)c(C(F)F)n1` [compound 6, fluxapyroxad], the inhibition at 40 µM in test [2] (read-out: % inhibition at 40 μM) is above 90%.
